Among the data in patent US9199927B2, “Guanidinobenzoic acid compound” (Astellas Pharma Inc., priority 2011, dated 2015) are IC50 values, retold here.

Assay [1] addresses mouse trypsin (m-trypsin). Description: Inhibitory activity of trypsin enzyme (mouse trypsin purified from small intestine contents, BZiPAR fluorescent substrate). It counts as biochemical. Conditions: mouse trypsin diluted 1/50, BZiPAR substrate, 30 minutes at room temperature. From the text:
(§1) 1. Inhibitory Activity of Trypsin Enzyme in Humans and Mice
(§2) In the experiment, human recombinant trypsin (r-h trypsin; manufactured by WAKO, cat. #206-17171) and mouse trypsin (m-trypsin; purified from the mouse small intestine contents by the present Company) were used.
The method to extract the trypsin from the mouse small intestine is shown below.
The small intestine contents and the gastrointestinal tract of 10 mice were suspended in PBS using Polytron and subjected to centrifugation at 15,000×g several times. The supernatant was mixed at 4° C. for 16 hours with a Benzamidine Sepharose 4 Fast Flow Resin (GE Healthcare: #17-5123-10). After washing the resin with PBS, m-trypsin was eluted with a glycine elution buffer (pH 3.0).
(§3) The outline of the measurement method is shown below.
(§4) The compound was dissolved in dimethyl sulfoxide (DMSO), and diluted to an arbitrary concentration (A). A was 100-fold diluted with a buffer (0.1 M Tris (pH 8.0), 0.15 M NaCl, 10 mM CaCl2, 0.05% Brij38) (B). The r-h trypsin was diluted with a buffer to 0.088 μg/mL, and the m-trypsin was diluted with a buffer to 1/50 (C). […] The substrate solution of a substrate for the enzyme reaction, BZiPAR, (Rhodamine Reference Substrate) was diluted with a buffer to 5 μmol/L (D). B; 5 μL, C; 5 μL, and D; 10 μL were added to a 384-plate, and incubated at room temperature for 30 minutes. The fluorescent signals were detected with Ex/Em=497/520 using Tecan Safire Fluorometer. […] Based on the obtained inhibitory rates, IC50 values (nM) were calculated from the non-linear regression. The test was carried out in the same manner, using camostat as a control compound.
(§5) Ex in the table represents the Example No. as denoted below.

The target of assay [2] is human recombinant trypsin (r-h trypsin) (Homo sapiens (Human), UniProt P07477). The assay can be described thus: Inhibitory activity of trypsin enzyme (human recombinant trypsin, BZiPAR fluorescent substrate). Format: biochemical. The following applies: human recombinant trypsin 0.088 μg/mL, 30 minutes at room temperature. The protocol: as §1, §2, §3, §4, §5

Each structure is given as a SMILES string. pIC50: −log10 of the molar value. Where a name gives a salt, the structure may show the parent alone.

A word on the pIC50: it is −log10 of the IC50, conventionally taken in molar units.

As to `N=C(N)Nc1ccc(C(=O)Oc2ccc(CC(=O)N[C@@H](Cc3ccccc3)C(=O)O)c(-c3ccccc3)c2)cc1` [Example 17], the figures for the pIC50 in assay [1] and in assay [2] were 9.57 and 9.37, respectively.

`N=C(N)Nc1ccc(C(=O)Oc2ccc(CCC(=O)N(CC(=O)O)Cc3ccccc3)c(Cl)c2)cc1` [Example 62]: the pIC50 was 9.77 in assay [1] and 9.54 in assay [2].

Consider `N=C(N)Nc1ccc(C(=O)Oc2ccc(CC(=O)N(CC(=O)O)[C@@H](Cc3ccccc3)C(=O)O)c(Cl)c2)cc1` [Example 40], for which the pIC50 in assay [1] is 9.35; in assay [2], 9.30.

With `N=C(N)Nc1ccc(C(=O)Oc2ccc(CC(=O)N[C@@H](Cc3cccc(F)c3)C(=O)O)c(Cl)c2)cc1` [Example 30], the pIC50 was 9.72 in assay [1] and 9.59 in assay [2].

Take `CN(C(=O)Cc1ccc(OC(=O)c2ccc(NC(=N)N)cc2)cc1Cl)[C@@H](Cc1ccccc1)C(=O)O` [Example 33]: the pIC50 in assay [1] was 9.22; in assay [2], 9.06.

As to `N=C(N)Nc1ccc(C(=O)Oc2ccc(CCC(=O)NC(Cc3ccccc3)C(=O)O)c(Cl)c2)cc1` (centres unmarked) [Example 131], the negative logarithm of the IC50 (pIC50) in assay [1] was 9.40; in assay [2], 9.29.

As for `N=C(N)Nc1ccc(C(=O)Oc2ccc(CC(=O)N[C@@H](Cc3ccccc3F)C(=O)O)c(Cl)c2)cc1` [Example 29], the pIC50 in assay [1] is 9.68; in assay [2], 9.51.

For the molecule `N=C(N)Nc1ccc(C(=O)Oc2ccc(CC(=O)N[C@@H](Cc3ccccc3)C(=O)O)c(C(F)(F)F)c2)cc1` [Example 25], the pIC50 in assay [1] was 9.60; in assay [2], 9.54.

In the case of `CN(C(=O)CN(CC(=O)O)Cc1cccc(C(=O)O)c1)c1ccc(OC(=O)c2ccc(NC(=N)N)cc2)cc1Cl` [Example 94], the pIC50 in assay [1] is 9.41; in assay [2], 9.38.

With `N=C(N)Nc1ccc(C(=O)Oc2ccc(CC(=O)N[C@@H](Cc3ccccc3)C(=O)O)c(Cl)c2Cl)cc1` [Example 26], the negative-log IC50 (pIC50) was 9.74 in assay [1] and 9.54 in assay [2].

For the molecule `N=C(N)Nc1ccc(C(=O)Oc2ccc(CCC(=O)Nc3ccc(CC(=O)O)cc3)c(Cl)c2)cc1` [Example 11], the figures for the pIC50 in assay [1] and in assay [2] were 9.35 and 9.12, respectively.

On to `N=C(N)Nc1ccc(C(=O)Oc2ccc(CC(=O)N[C@@H](Cc3ccccc3)C(=O)O)c(C3CC3)c2)cc1` [Example 34], for which the pIC50 in assay [1] is 9.62; in assay [2], 9.44.

Turning to `N=C(N)Nc1ccc(C(=O)Oc2ccc(CC(=O)N[C@@H](Cc3c[nH]cn3)C(=O)O)c(Cl)c2)cc1` [Example 2, N-({4-[(4-carbamimidamidobenzoyl)oxy]-2-chlorophenyl}acetyl)-L-histidine 2 hydrochloride], the negative logarithm of the IC50 (pIC50) was 9.31 in assay [1] and 9.04 in assay [2].

On to `N=C(N)Nc1ccc(C(=O)Oc2cc(Cl)c(CC(=O)N[C@@H](Cc3ccccc3)C(=O)O)c(Cl)c2)cc1` [Example 27], for which the pIC50 is 9.72 in assay [1] and 9.59 in assay [2].

Take `N=C(N)Nc1ccc(C(=O)Oc2ccc(CCCCC(=O)N[C@@H](Cc3ccccc3)C(=O)O)c(Cl)c2)cc1` [Example 37]: the negative-log IC50 (pIC50) in assay [1] is 9.47; in assay [2] it was 9.42.

For the molecule `N=C(N)Nc1ccc(C(=O)Oc2ccc(CC(=O)N(CCC(=O)O)[C@@H](Cc3ccccc3)C(=O)O)c(Cl)c2)cc1` [Example 54], the pIC50 in assay [1] was 9.42; in assay [2] it was 9.38.

`N=C(N)Nc1ccc(C(=O)Oc2ccc3nc(C(=O)Nc4ccc(CC(=O)O)cc4)ccc3c2)cc1` [Example 22]: the negative logarithm of the IC50 (pIC50) in assay [1] is 9.70; in assay [2], 9.54.

Consider `N=C(N)Nc1ccc(C(=O)Oc2ccc(CC(=O)N(CCc3ccccc3)CC(=O)O)c(Cl)c2)cc1` [Example 35], for which the pIC50 was 9.55 in assay [1] and 9.36 in assay [2].

Take `N=C(N)Nc1ccc(C(=O)Oc2ccc(CCC(=O)N(Cc3cccc(C(=O)O)c3)Cc3cccc(C(=O)O)c3)c(Cl)c2)cc1` [Example 93]: the results for the pIC50 in assay [1] and in assay [2] were 9.25 and 9.40, respectively.
